In US9981997B2, “Chemical reagents for attaching affinity molecules on surfaces” (ARIZONA BOARD OF REGENTS ON BEHALF OF ARIZONA STATE …, priority 2013, dated 2018):

Molecular target: T1, thrombin (Homo sapiens, UniProt P00734)
T1 construct: protein cognates human α-thrombin and human α5β1-integrin immobilized on mica surfaces; purchased Abeam (so in the source)
Assay: AFM recognition imaging of thrombin on mica
Assay type: binding
Conditions: conjugate on Ni-coated MacMode silicon tip; protein 50 pg/μL
Excerpt: The AFM based recognition imaging is an effective tool for clinical diagnostics. The attachment and click chemistry of the disclosure works well in combination with the RI technique. Prior to this disclosure, the recognition imaging of clinically relevant proteins thrombin and integrin had not been reported. […] Linker 6a was tailored for RI. Its conjugate D-1a or P-1a was attached to Ni-coated MacMode tips (from Nanoworld) following the same protocol above mentioned. The protein samples (thrombin or α5β1 integrin) were deposited on mica using the same glutaraldehyde chemistry. However, the optimal protein concentration (50 pg/μL in 1×PBS buffer, pH 7.4) for the RI was […] lower than that for the force measurements, which was pre-determined by imaging the surface with bare AFM tips in the air mode, ensuring that the protein molecules were well distributed in a predefined area. For one measurement, only […] of protein sample is needed in the current setup. Thus, a few femtomoles of proteins can readily be detected by the AFM based recognition imaging. […] RI simultaneously produces both topographic and recognition images. Each bright round spot in the topographic image represents a protein molecule (thrombin in Panel A and integrin in panel D of FIG. 16). […]

“D-1a: thrombin-binding DNA aptamer 5′-GGTTGGTGTGGTTGG, 3′-thiol, joined to PEG linker 6a by Michael addition (DNA, backbone not given here; 3'-thiol joined to PEG linker 6a by Michael addition)” was tested, and the “recognition of thrombin (topography vs recognition image)” value was “About 77%”.
